These compounds were tested on HCV genotype 1a replicon cell line (APC89; Huh7.5 cell background) (assay: HCV Genotype 1a Replicon Assay (NS3-specific protease activity readout)). Conditions: Hepatitis C virus, 72 hour incubation, read-out: Genotype 1a (pEC50 class, HCV genotype 1a replicon assay) (converted).
Assay type: cell-based
Experimental: Assay 2: HCV Genotype 1a Replicon Assay
The HCV genotype 1a replicon cell line was obtained from Apath LLC (APC89; Huh7.5 cell background). This subgenomic replicon contains the N-terminus of the HCV core protein fused to the neomycin-resistance selectable marker. The EMCV IRES lies downstream and drives expression of the non-structural proteins NS3-NS5B. Compound potencies were determined using the NS3-specific protease activity in lysates as a measurement of compound inhibition of replicon levels.
Cells were grown at 37° C. in a 5% CO2 humidified incubator in DMEM (Invitrogen) with 10% FBS (HyClone), 1×NEAA (Invitrogen), 1× Pen-Strep (Invitrogen), and 850 μg/mL G418 (Invitrogen). On day 1 of the assay, cells were plated at 15,000 cells/well in black 96-well tissue culture plates (Costar) in 200 μL media lacking G418. Four hours later, once the cells had adhered, the media was removed and replaced with media (no G418) containing dose-responses of test compounds. Compounds were initially diluted in DMSO and then diluted another 200× in media to bring the final DMSO concentration down to 0.5%. The cells were incubated with test compounds for 48 or 72 hours. At the end of the incubation period, media and compound were removed from the plates.
To determine the NS3-specific protease activity in lysates, the cells were lysed at room temperature in 50 μL/well of 50 mM Hepes pH 7.5, 150 mM NaCl, 15% Glycerol, 0.15% Triton X-100, 10 mM DTT for 20 minutes with shaking. 50 μL of an NS3/4a protease-specific FRET substrate (Anaspec RET S1 Cat#22991) was then added to the wells at a final concentration of 15 μM. The plates were incubated at 37° C. for 20 minutes, which corresponds to a timepoint at which the protease activity is still in the linear phase. Protease activity was determined by measuring fluorescence (Excitation: 340 nm; Emission: 509 nm).
To analyze the data, the fluorescence was plotted vs. the compound concentration, and EC50 values were determined from a 4-parameter robust fit model using GraphPad Prism software.

| Compound | EC50 [nM] |
| --- | --- |
| CCOc1cc(NC(=O)c2ccc(N3CCN(C(=O)NC)C[C@H]3C)nc2)ccc1-c1ccc(-c2c[nH]c([C@@H]3CCCN3C(=O)[C@@H](NC(=O)OC)C(C)C)n2)cc1 [Example 23] | 0.1 to 1 |
| CCOc1cc(NC(=O)c2ccc(N3CCN(C(=O)c4c[nH]cn4)C[C@H]3C)nc2)ccc1-c1ccc(-c2c[nH]c([C@@H]3CCCN3C(=O)[C@@H](NC(=O)OC)C(C)C)n2)cc1 [Example 24] | 0.1 to 1 |
| COC(=O)N[C@H](C(=O)N1CCC[C@H]1c1nc(-c2ccc(-c3cc(F)c(NC(=O)c4ccc(N5CCN(C(=O)[C@]6(C)CCCN6C(=O)OC(C)(C)C)C[C@H]5C)nc4)cc3OC(F)(F)F)cc2)c[nH]1)C(C)C [Example 27-8] | < 0.1 |
| COC(=O)N[C@H](C(=O)N1CCC[C@H]1c1nc(-c2ccc(-c3cc(F)c(NC(=O)c4ccc(N5CCN(C(=O)[C@]6(C)CCCN6)C[C@H]5C)nc4)cc3OC(F)(F)F)cc2)c[nH]1)C(C)C [Example 27-9] | 1 to 10 |
| COC(=O)N[C@H](C(=O)N1CCC[C@H]1c1nc(-c2ccc(-c3cc(OC)c(NC(=O)c4ccc(N5CCN(C(=O)c6c[nH]cn6)C[C@H]5C)nc4)cc3OC(F)(F)F)cc2)c[nH]1)C(C)C [Example 27-29] | 0.1 to 1 |
| CNC(=O)N1CCN(c2ccc(C(=O)Nc3cc(OC(F)(F)F)c(-c4ccc(-c5c[nH]c([C@@H]6CCCN6C(=O)[C@@H](NC(=O)OC)C(C)C)n5)cc4)cc3OC)cn2)[C@H](C)C1 [Example 27-32] | 0.1 to 1 |
| COC(=O)N[C@H](C(=O)N1CCC[C@H]1c1nc(-c2ccc(-c3cc(F)c(NC(=O)c4ccc(N5CCN(C(=O)c6ncccn6)C[C@H]5C)nc4)cc3OC(F)(F)F)cc2)c[nH]1)C(C)C [Example 27-35] | 0.1 to 1 |
| COC(=O)N[C@H](C(=O)N1CCC[C@H]1c1nc(-c2ccc(-c3cc(F)c(NC(=O)c4ccc(N5CCN(C(=O)NC(C)C)C[C@H]5C)nc4)cc3OC(F)(F)F)cc2)c[nH]1)C(C)C [Example 27-39] | 0.1 to 1 |
| COC(=O)N[C@H](C(=O)N1CCC[C@H]1c1nc(-c2ccc(-c3cc(F)c(NC(=O)c4ccc(N5CCN(C(=O)NC6CC6)C[C@H]5C)nc4)cc3OC(F)(F)F)cc2)c[nH]1)C(C)C [Example 27-40] | 0.1 to 1 |
| COC(=O)N[C@H](C(=O)N1CCC[C@H]1c1nc(-c2ccc(-c3cc(F)c(NC(=O)c4ccc(N5CCN(C(=O)[C@]6(C)CCCN6C(=O)[C@H](C)O)C[C@H]5C)nc4)cc3OC(F)(F)F)cc2)c[nH]1)C(C)C [Example 27-49] | < 0.1 |
| COC(=O)N[C@H](C(=O)N1CCC[C@H]1c1nc(-c2ccc(-c3cc(Cl)c(NC(=O)c4ccc(N5CCN(C(=O)c6c[nH]cn6)C[C@H]5C)nc4)cc3OC(F)(F)F)cc2)c[nH]1)C(C)C [Example 27-66] | < 0.1 |
| COC(=O)N[C@H](C(=O)N1CCC[C@H]1c1nc(-c2ccc(-c3cc(Cl)c(NC(=O)c4ccc(N5CCN(C(=O)[C@]6(C)CCCN6C(=O)c6c[nH]cn6)C[C@H]5C)nc4)cc3OC(F)(F)F)cc2)c[nH]1)C(C)C [Example 27-71] | < 0.1 |
| COCCNC(=O)N1CCC[C@@]1(C)C(=O)N1CCN(c2ccc(C(=O)Nc3cc(OC(F)(F)F)c(-c4ccc(-c5c[nH]c([C@@H]6CCCN6C(=O)[C@@H](NC(=O)OC)C(C)C)n5)cc4)cc3Cl)cn2)[C@H](C)C1 [Example 27-74] | < 0.1 |
| COC(=O)N[C@H](C(=O)N1CCC[C@H]1c1nc(-c2ccc(-c3cc(Cl)c(NC(=O)c4ccc(N5CCN(C(=O)[C@]6(C)CCCN6C(=O)[C@@H](N)C(C)C)C[C@H]5C)nc4)cc3OC(F)(F)F)cc2)c[nH]1)C(C)C [Example 27-75] | < 0.1 |
| COC(=O)N[C@H](C(=O)N1CCC[C@H]1c1nc(-c2ccc(-c3cc(Cl)c(NC(=O)c4ccc(N5CCN(C(=O)[C@]6(C)CCCN6C(=O)CO)C[C@H]5C)nc4)cc3OC(F)(F)F)cc2)c[nH]1)C(C)C [Example 27-76] | < 0.1 |
| COC(=O)N[C@H](C(=O)N1CCC[C@H]1c1nc(-c2ccc(-c3cc(Cl)c(NC(=O)c4ccc(N5C[C@H](C)N(C(=O)[C@]6(C)CCCN6C(=O)CN(C)C)C[C@H]5C)nc4)cc3OC(F)(F)F)cc2)c[nH]1)C(C)C [Example 28-41] | < 0.1 |

Reference: patent US8921372B2, “Inhibitors of hepatitis C virus” (Theravance Biopharma R&D IP, LLC, priority 2010, dated 2014)
